# Assay results as given in patent US10987359B2, “Oxadiazepinone derivatives and methods of treating hepatitis B infections” (priority 2016, dated 2021).
# Tested on: HBV
# Assay: HBV replication inhibition assay (BDNA assay) in HepG2.2.15 cells
# Type: cell-based
# Conditions: HBV replication assay (BDNA assay), HepG2.2.15 cells; read-out: DNA EC50
# Procedure, shortened: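 HepG2.2.15 cells with stably integrated HBV were treated with serially diluted compounds at 0.5% DMSO for 6 days, with medium and compound refreshed at day 3. Encapsidated HBV DNA from DNase-treated supernatant was quantified by branched DNA assay. EC50 came from % inhibition versus DMSO, fitted non-linearly.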
row,SMILES,EC50
1,"C[C@@H]1Cc2nn3c(c2CN1C(=O)Nc1ccc(F)c(C#N)c1)C(=O)N(C)OC(CN(C)C)C3 (stereo in doubt) [Compound 096_D2, (4R*,9R)—N-(3-cyano-4-fluorophenyl)-4-((dimethylamino)methyl)-2,9-dimethyl-1-oxo-1,4,5,8,9,11-hexahydropyrido[4′,3′:3,4]pyrazolo[5,1-d][1,2,5]oxadiazepine-10(2H)-carboxamide]",0.001 to 0.1 µM
2,"CN1OC(CO)Cn2nc3c(c2C1=O)CN(C(=O)Nc1ccc(F)c(C(F)(F)F)c1)CC3 (single isomer, unassigned) [Compound 011_E2, (R*)—N-(4-fluoro-3-(trifluoromethyl)phenyl)-4-(hydroxymethyl)-2-methyl-1-oxo-1,4,5,8,9,11-hexahydropyrido[4′,3′:3,4]pyrazolo[5,1-d][1,2,5]oxadiazepine-10(2H)-carboxamide]",0.001 to 0.1 µM
3,"C[C@@H]1Cc2nn3c(c2CN1C(=O)Nc1ccnc(Br)c1F)C(=O)N(C)OC(COCC(F)F)C3 (stereo in doubt) [Compound 123_D2, (4R*,9R)—N-(2-bromo-3-fluoropyridin-4-yl)-4-((2,2-difluoroethoxy)methyl)-2,9-dimethyl-1-oxo-1,4,5,8,9,11-hexahydropyrido[4′,3′:3,4]pyrazolo[5,1-d][1,2,5]oxadiazepine-10(2H)-carboxamide]",0.001 to 0.1 µM
4,"C[C@@H]1Cc2nn3c(c2CN1C(=O)Nc1ccc(F)c(C#N)c1)C(=O)N(C)OC(CF)C3 (stereo in doubt) [Compound 087_E2, (4R*,9R)—N-(3-cyano-4-fluorophenyl)-4-(fluoromethyl)-2,9-dimethyl-1-oxo-1,4,5,8,9,11-hexahydropyrido[4′,3′:3,4]pyrazolo[5,1-d][1,2,5]oxadiazepine-10(2H)-carboxamide]",0.001 to 0.1 µM

# Same assay, conditions: Hepatitis B virus, HepG2.2.15, HBV replication assay (BDNA assay), HepG2.2.15 cells; read-out: DNA EC50
row,SMILES,EC50
1,"[2H]C([2H])([2H])N1OC(CO)Cn2nc3c(c2C1=O)CN(C(=O)Nc1ccc(F)c(Cl)c1)CC3 (stereo not drawn) [Compound 107, N-(3-chloro-4-fluoro-phenyl)-4-(hydroxymethyl)-1-oxo-2-(trideuteriomethyl)-5,8,9,11-tetrahydro-4H-pyrido[2,3]pyrazolo[2,4-d][1,2,5]oxadiazepine-10-carboxamide]",0.001 to 0.1 µM
2,"CN1OC(COC(N)=O)Cn2nc3c(c2C1=O)CN(C(=O)Nc1ccc(F)c(Cl)c1)CC3 (stereo not drawn) [Compound 057, (10-((3-chloro-4-fluorophenyl)carbamoyl)-2-methyl-1-oxo-1,2,4,5,8,9,10,11-octahydropyrido[4′,3′:3,4]pyrazolo[5,1-d][1,2,5]oxadiazepin-4-yl)methyl carbamate]",0.001 to 0.1 µM
3,"CN1OC(C(=O)N2CC(F)(F)C2)Cn2nc3c(c2C1=O)CN(C(=O)Nc1ccc(F)c(Cl)c1)CC3 (stereo not drawn) [Compound 131, N-(3-chloro-4-fluorophenyl)-4-(3,3-difluoroazetidine-1-carbonyl)-2-methyl-1-oxo-1,4,5,8,9,11-hexahydropyrido[4′,3′:3,4]pyrazolo[5,1-d][1,2,5]oxadiazepine-10(2H)-carboxamide]",0.001 to 0.1 µM
4,"CN1OC(CNC(=O)CO)Cn2nc3c(c2C1=O)CN(C(=O)Nc1ccc(F)c(Cl)c1)CC3 (stereo not drawn) [Compound 206, N-(3-chloro-4-fluorophenyl)-4-((2-hydroxyacetamido)methyl)-2-methyl-1-oxo-1,4,5,8,9,11-hexahydropyrido[4′,3′:3,4]pyrazolo[5,1-d][1,2,5]oxadiazepine-10(2H)-carboxamide]",0.001 to 0.1 µM
5,"CCOC(=O)NCC1Cn2nc3c(c2C(=O)N(C)O1)CN(C(=O)Nc1ccc(F)c(Cl)c1)CC3 (stereo not drawn) [Compound 202, ethyl ((10-((3-chloro-4-fluorophenyl)carbamoyl)-2-methyl-1-oxo-1,2,4,5,8,9,10,11-octahydropyrido[4′,3′:3,4]pyrazolo[5,1-d][1,2,5]oxadiazepin-4-yl)methyl)carbamate]",0.001 to 0.1 µM
6,"CN1OC(CN)Cn2nc3c(c2C1=O)CN(C(=O)Nc1ccc(F)c(Cl)c1)CC3 (stereo not drawn) [Compound 113, 4-(aminomethyl)-N-(3-chloro-4-fluoro-phenyl)-2-methyl-1-oxo-5,8,9,11-tetrahydro-4H-pyrido[2,3]pyrazolo[2,4-d][1,2,5]oxadiazepine-10-carboxamide]",0.001 to 0.1 µM
7,"CN(C)C(=O)C1Cn2nc3c(c2C(=O)N(C)O1)CN(C(=O)Nc1ccc(F)c(Cl)c1)CC3 (stereo not drawn) [Compound 074, N10-(3-chloro-4-fluoro-phenyl)-N4,N4,2-trimethyl-1-oxo-5,8,9,11-tetrahydro-4H-pyrido[2,3]pyrazolo[2,4-d][1,2,5]oxadiazepine-4,10-dicarboxamide]",0.001 to 0.1 µM
8,"CN1OC(CO)Cn2nc3c(c2C1=O)CN(C(=O)Nc1cccc(Br)c1)CC3 (stereo not drawn) [Compound 001, N-(3-bromophenyl)-4-(hydroxymethyl)-2-methyl-1-oxo-1,4,5,8,9,11-hexahydropyrido[4′,3′:3,4]pyrazolo[5,1-d][1,2,5]oxadiazepine-10(2H)-carboxamide]",0.001 to 0.1 µM
9,"C[C@@H]1Cc2nn3c(c2CN1C(=O)Nc1ccc(F)c(Cl)c1)C(=O)N(C)OC(CN(C)C)C3 (single isomer, unassigned) [Compound 093_D1, (4S*,9R)—N-(3-chloro-4-fluorophenyl)-4-((dimethylamino)methyl)-2,9-dimethyl-1-oxo-1,4,5,8,9,11-hexahydropyrido[4′,3′:3,4]pyrazolo[5,1-d][1,2,5]oxadiazepine-10(2H)-carboxamide]",0.001 to 0.1 µM
10,"CN1OC(CO)Cn2nc3c(c2C1=O)CN(C(=O)Nc1cccc(Br)c1F)CC3 (stereo not drawn) [Compound 004, N-(3-bromo-2-fluorophenyl)-4-(hydroxymethyl)-2-methyl-1-oxo-1,4,5,8,9,11-hexahydropyrido[4′,3′:3,4]pyrazolo[5,1-d][1,2,5]oxadiazepine-10(2H)-carboxamide]",0.001 to 0.1 µM
11,"CN1OC(CO)Cn2nc3c(c2C1=O)CN(C(=O)Nc1cc(Br)c(F)cc1F)CC3 (stereo not drawn) [Compound 014, N-(5-bromo-2,4-difluorophenyl)-4-(hydroxymethyl)-2-methyl-1-oxo-1,4,5,8,9,11-hexahydropyrido[4′,3′:3,4]pyrazolo[5,1-d][1,2,5]oxadiazepine-10(2H)-carboxamide]",0.001 to 0.1 µM
12,"CN1OC(C(=O)N2CCC(F)(F)C2)Cn2nc3c(c2C1=O)CN(C(=O)Nc1ccc(F)c(Cl)c1)CC3 (stereo not drawn) [Compound 132, N-(3-chloro-4-fluorophenyl)-4-(3,3-difluoropyrrolidine-1-carbonyl)-2-methyl-1-oxo-1,4,5,8,9,11-hexahydropyrido[4′,3′:3,4]pyrazolo[5,1-d][1,2,5]oxadiazepine-10(2H)-carboxamide]",0.001 to 0.1 µM
13,"CC(C)OC(=O)OCC1Cn2nc3c(c2C(=O)N(C)O1)CN(C(=O)Nc1ccc(F)c(Cl)c1)CC3 (stereo not drawn) [Compound 053, (10-((3-chloro-4-fluorophenyl)carbamoyl)-2-methyl-1-oxo-1,2,4,5,8,9,10,11-octahydropyrido[4′,3′:3,4]pyrazolo[5,1-d][1,2,5]oxadiazepin-4-yl)methyl isopropyl carbonate]",0.001 to 0.1 µM
14,"C[C@@H]1Cc2nn3c(c2CN1C(=O)Nc1ccc(F)c(Cl)c1)C(=O)N(C)O[C@@H](CO)C3 (stereo in doubt) [Compound 069_E3, (4R*,9R*)—N-(3-chloro-4-fluorophenyl)-4-(hydroxymethyl)-2,9-dimethyl-1-oxo-1,4,5,8,9,11-hexahydropyrido[4′,3′:3,4]pyrazolo[5,1-d][1,2,5]oxadiazepine-10(2H)-carboxamide]",0.1 to 0.5 µM
15,"CN1OC(CO)Cn2nc3c(c2C1=O)CN(C(=O)Nc1cc(F)c(F)c(Cl)c1)CC3 (single isomer, unassigned) [Compound 028_E1, (S*)—N-(3-chloro-4,5-difluorophenyl)-4-(hydroxymethyl)-2-methyl-1-oxo-1,4,5,8,9,11-hexahydropyrido[4′,3′:3,4]pyrazolo[5,1-d][1,2,5]oxadiazepine-10(2H)-carboxamide]",0.001 to 0.1 µM
16,"COC(=O)NCC1Cn2nc3c(c2C(=O)N(C)O1)CN(C(=O)Nc1ccc(F)c(Cl)c1)CC3 (stereo not drawn) [Compound 166, methyl((10-((3-chloro-4-fluorophenyl)carbamoyl)-2-methyl-1-oxo-1,2,4,5,8,9,10,11-octahydropyrido[4′,3′:3,4]pyrazolo[5,1-d][1,2,5]oxadiazepin-4-yl)methyl)carbamate]",0.001 to 0.1 µM
17,"C[C@@H]1Cc2nn3c(c2CN1C(=O)Nc1ccc(F)c(C#N)c1)C(=O)N(C)OC(CO)C3 (stereo in doubt) [Compound 084_E1, (4S*,9R)—N-(3-cyano-4-fluorophenyl)-4-(hydroxymethyl)-2,9-dimethyl-1-oxo-1,4,5,8,9,11-hexahydropyrido[4′,3′:3,4]pyrazolo [5,1-d][1,2,5]oxadiazepine-10(2H)-carboxamide]",0.001 to 0.1 µM
18,"CN1OC(COCC2CC2)Cn2nc3c(c2C1=O)CN(C(=O)Nc1ccc(F)c(Cl)c1)CC3 (stereo not drawn) [Compound 104, N-(3-chloro-4-fluoro-phenyl)-4-(cyclopropylmethoxymethyl)-2-methyl-1-oxo-5,8,9,11-tetrahydro-4H-pyrido[2,3]pyrazolo[2,4-d][1,2,5]oxadiazepine-10-carboxamide]",0.001 to 0.1 µM
19,"COC(=O)NCC1Cn2nc3c(c2C(=O)N(C)O1)CN(C(=O)Nc1ccc(F)c(C#N)c1)[C@H](C)C3 (single isomer, unassigned) [Compound 180_D1, methyl (((4S*,9R)-10-((3-cyano-4-fluorophenyl)carbamoyl)-2,9-dimethyl-1-oxo-1,2,4,5,8,9,10,11-octahydropyrido[4′,3′:3,4]pyrazolo[5,1-d][1,2,5]oxadiazepin-4-yl)methyl)carbamate]",0.001 to 0.1 µM
20,"CN1OC(CO)Cn2nc3c(c2C1=O)CN(C(=O)Nc1ccc(F)c(C(F)(F)F)c1)CC3 (single isomer, unassigned) [Compound 011_E1, (S*)—N-(4-fluoro-3-(trifluoromethyl)phenyl)-4-(hydroxymethyl)-2-methyl-1-oxo-1,4,5,8,9,11-hexahydropyrido[4′,3′:3,4]pyrazolo[5,1-d][1,2,5]oxadiazepine-10(2H)-carboxamide]",0.001 to 0.1 µM
